According to US20150105252A1, “SUBSTITUTED PYRAZOLES AS HERBICIDES” (E I DU PONT DE NEMOURS AND COMPANY, priority 2013, published 2015):

Experiments:
[1] = system: ryegrass, Italian; test: Test C postemergence; assay type: in vivo, Lolium multiflorum
Outline: (§1)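 Herbicidal effect is expressed as percent visual control (0–100) judged against untreated plants 13 to 15 days after treatment in the greenhouse. Preemergence pots contained seeds in a soil–sand blend; postemergence plants, 2–18 cm tall, grew in peat-based planting medium.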

[2] = system: rice; test: Test B flood; assay type: in vivo, Oryza sativa; details: 250 g ai/ha, visual rating on 0 to 100 scale (0 no effect, 100 complete control), 13 to 15 days
Outline: (§2)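 Flooded-pot test: compound dosed into 3 cm of standing water above soil when plants had two leaves. Visual control ratings (0–100) versus untreated plants after 13–15 d.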

[3] = system: wheat; test: Test C preemergence; assay type: in vivo, Triticum aestivum
Outline: as §1

[4] = system: lambsquarters; test: Test C preemergence; assay type: in vivo, Chenopodium album
Outline: as §1

[5] = system: ragweed; test: Test C preemergence; assay type: in vivo, Ambrosia elation
Outline: as §1

[6] = system: pigweed; test: Test A preemergence; assay type: in vivo, Amaranthus retroflexus; details: preemergence
Outline: (§3)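 Growth medium: loam soil blended with sand. Preemergence treatment used a directed soil spray right after planting; postemergence treatment targeted seedlings at one to two leaves (2–10 cm height). Response was judged by eye relative to untreated plants about 10 days later on a 0–100 control scale.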

[7] = system: wheat; test: Test A postemergence; assay type: in vivo, Triticum aestivum
Outline: as §3

[8] = system: kochia; test: Test C postemergence; assay type: in vivo, Kochia scoparia; details: for Plant response rating (scale of 0 to 100 where 0 is no effect and 100 is complete control), Kochia: Postemergence, 31 g ai/ha, visually evaluated after 13 to 15 days; for Kochia plant response rating / Plant response rating, Kochia: postemergence; for Kochia plant response rating: 62 g ai/ha, scale 0 to 100
Outline: as §1

[9] = system: lambsquarters; test: Test C postemergence; assay type: in vivo, Chenopodium album; details: for Plant response rating (scale of 0 to 100 where 0 is no effect and 100 is complete control), Lambsquarters: Postemergence, 31 g ai/ha, visually evaluated after 13 to 15 days; for Lambsquarters plant response rating / Plant response rating, Lambsquarters: postemergence; for Lambsquarters plant response rating: 62 g ai/ha, scale 0 to 100
Outline: as §1

[10] = system: crabgrass, large; test: Test C postemergence; assay type: in vivo, Digitaria sanguinalis; details: for Plant response rating (scale of 0 to 100 where 0 is no effect and 100 is complete control), Crabgrass, Large: Postemergence, 31 g ai/ha, visually evaluated after 13 to 15 days; for Crabgrass, Large plant response rating / Plant response rating, Crabgrass, Large: postemergence; for Crabgrass, Large plant response rating: 62 g ai/ha, scale 0 to 100
Outline: as §1

[11] = system: corn; test: Test C preemergence; assay type: in vivo, Zea mays
Outline: as §1

[12] = system: galium; test: Test C preemergence; assay type: in vivo, Galium aparine
Outline: as §1

[13] = system: sedge, umbrella; test: Test B flood; assay type: in vivo, Cyperus difformis; details: 250 g ai/ha, visual rating on 0 to 100 scale (0 no effect, 100 complete control), 13 to 15 days
Outline: as §2

[14] = postemergence, 250 g ai/ha, scale 0 to 100 (0 no effect, 100 complete control)
[15] = postemergence, 125 g ai/ha, scale 0 to 100, 0 no effect, 100 complete control
[16] = preemergence, 31 g ai/ha, visual rating, scale 0 to 100 (0 no effect, 100 complete control), 13 to 15 days
[17] = preemergence, 62 g ai/ha, scale 0 to 100 (0 no effect, 100 complete control), 13 to 15 days
[18] = preemergence, 125 g ai/ha, 13 to 15 days, scale 0 to 100, 0 = no effect, 100 = complete control
[19] = preemergence, 250 g ai/ha, scale 0 to 100, 0 is no effect, 100 is complete control
[20] = 500 g ai/ha, visual injury after approx. 10 days, 0 to 100 scale (0 no effect, 100 complete control)
[21] = postemergence, 125 g ai/ha, about 10 days, visual rating on 0 to 100 scale (0 no effect, 100 complete control)
[22] = 250 g ai/ha, scale 0 to 100 (0 no effect, 100 complete control)
[23] = 125 g ai/ha, scale 0 to 100, 0 no effect, 100 complete control
[24] = preemergence, 125 g ai/ha, scale 0 to 100, 0 is no effect, 100 is complete control

## CCNC(=O)c1cc(CC)n(Cc2cc(C(F)(F)F)nn2C)n1 [Compound 154]
[1]; [14]
  Plant response rating, Ryegrass, Italian: 5
[1]; [15]
  Plant response rating, Ryegrass, Italian: 0
[2]
  Plant response rating, Rice: 0
[3]; [16]
  Wheat plant response rating: 0
[3]; [17]
  Wheat plant response rating: 5
[3]; [18]
  Plant response rating, Wheat: 50
[3]; [19]
  Wheat plant response rating: 90
[4]; [16]
  Lambsquarters plant response rating: 65
[4]; [17]
  Lambsquarters plant response rating: 98
[4]; [18]
  Plant response rating, Lambsquarters: 100
[4]; [19]
  Lambsquarters plant response rating: 98
[5]; [16]
  Ragweed plant response rating: 25
[5]; [17]
  Ragweed plant response rating: 80
[5]; [18]
  Plant response rating, Ragweed: 98
[5]; [19]
  Ragweed plant response rating: 98
[6]; 125 g ai/ha, visual injury approx. 10 days after treatment
  Pigweed plant response rating (0 to 100 scale): 100
[6]; [20]
  Pigweed plant response rating: 100
[7]; Postemergence, 500 g ai/ha, 0 to 100 scale (0 no effect, 100 complete control)
  Wheat plant response rating: 100
[7]; [21]
  Wheat plant response rating: 20
[8]
  Plant response rating (scale of 0 to 100 where 0 is no effect and 100 is complete control), Kochia: 80
  Kochia plant response rating: 85
[8]; [22]
  Plant response rating, Kochia: 95
[8]; [23]
  Plant response rating, Kochia: 85
[9]
  Plant response rating (scale of 0 to 100 where 0 is no effect and 100 is complete control), Lambsquarters: 40
  Lambsquarters plant response rating: 50
[9]; [22]
  Plant response rating, Lambsquarters: 75
[9]; [23]
  Plant response rating, Lambsquarters: 75
[10]
  Plant response rating (scale of 0 to 100 where 0 is no effect and 100 is complete control), Crabgrass, Large: 5
  Crabgrass, Large plant response rating: 5
[10]; [22]
  Plant response rating, Crabgrass, Large: 10
[10]; [23]
  Plant response rating, Crabgrass, Large: 5
[11]; [16]
  Corn plant response rating: 0
[11]; [17]
  Corn plant response rating: 5
[11]; [18]
  Plant response rating, Corn: 40
[11]; [19]
  Corn plant response rating: 95
[12]; [16]
  Galium plant response rating: 90
[12]; [17]
  Galium plant response rating: 100
[12]; [18]
  Plant response rating, Galium: 100
[12]; [19]
  Galium plant response rating: 100
[13]
  Plant response rating, Sedge, Umbrella: 95

## CCCNC(=O)c1cc(CC)n(Cc2nc(C(F)(F)F)nn2C)n1 [Compound 109]
[1]; Postemergence, 31 g ai/ha, visually evaluated after 13 to 15 days
  Plant response rating (scale of 0 to 100 where 0 is no effect and 100 is complete control), Ryegrass, Italian: 5
[1]; postemergence, 62 g ai/ha, scale 0 to 100
  Ryegrass, Italian plant response rating: 5
[1]; [14]
  Plant response rating, Ryegrass, Italian: 10
[1]; [15]
  Plant response rating, Ryegrass, Italian: 5
[2]
  Plant response rating, Rice: 0
[3]; Preemergence, 250 g ai/ha
  Plant response rating (scale of 0 to 100), Wheat: 85
[3]; [16]
  Wheat plant response rating: 0
[3]; [17]
  Wheat plant response rating: 15
[3]; [24]
  Wheat plant response rating: 85
[4]; Preemergence, 250 g ai/ha
  Plant response rating (scale of 0 to 100), Lambsquarters: 100
[4]; [16]
  Lambsquarters plant response rating: 100
[4]; [17]
  Lambsquarters plant response rating: 100
[4]; [24]
  Lambsquarters plant response rating: 100
[5]; Preemergence, 250 g ai/ha
  Plant response rating (scale of 0 to 100), Ragweed: 100
[5]; [16]
  Ragweed plant response rating: 100
[5]; [17]
  Ragweed plant response rating: 100
[5]; [24]
  Ragweed plant response rating: 100
[6]; 125 g ai/ha, visual injury, 0 to 100 scale, approx. 10 days
  Pigweed plant response rating: 100
[6]; [20]
  Pigweed plant response rating: 100
[7]; Postemergence, 500 g ai/ha, visual rating after approx. 10 days, 0 to 100 scale (0 no effect, 100 complete control)
  Wheat plant response rating: 80
[7]; [21]
  Wheat plant response rating: 50
[8]
  Plant response rating (scale of 0 to 100 where 0 is no effect and 100 is complete control), Kochia: 50
  Kochia plant response rating: 75
[8]; [22]
  Plant response rating, Kochia: 90
[8]; [23]
  Plant response rating, Kochia: 90
[9]
  Plant response rating (scale of 0 to 100 where 0 is no effect and 100 is complete control), Lambsquarters: 45
  Lambsquarters plant response rating: 45
[9]; [22]
  Plant response rating, Lambsquarters: 85
[9]; [23]
  Plant response rating, Lambsquarters: 65
[10]
  Plant response rating (scale of 0 to 100 where 0 is no effect and 100 is complete control), Crabgrass, Large: 5
  Crabgrass, Large plant response rating: 10
[10]; [22]
  Plant response rating, Crabgrass, Large: 45
[10]; [23]
  Plant response rating, Crabgrass, Large: 10
[11]; Preemergence, 250 g ai/ha
  Plant response rating (scale of 0 to 100), Corn: 100
[11]; [16]
  Corn plant response rating: 25
[11]; [17]
  Corn plant response rating: 85
[11]; [24]
  Corn plant response rating: 95
[12]; Preemergence, 250 g ai/ha
  Plant response rating (scale of 0 to 100), Galium: 100
[12]; [16]
  Galium plant response rating: 10
[12]; [17]
  Galium plant response rating: 100
[12]; [24]
  Galium plant response rating: 100
[13]
  Plant response rating, Sedge, Umbrella: 0
